Here are results for 3 compounds from patent US9610365B2, “Anthracenyl-tetralactam macrocycles and their use in detecting a target saccharide” (UNIVERSITY OF BRISTOL, priority 2012, dated 2017).

One series is described as follows: Fluorescence titration. The class given is binding. Conditions: for Ka: fluorescence titration in phosphate buffer solution (pH 7.1, 0.1 M) at 298 K. Here is the method: (§1) Fluorescence titrations were carried out at 298 K on a PerkinElmer™ LS45 spectrometer in PBS (phosphate buffered saline) buffer solution (pH 7.1, 100 mM). The carbohydrate stock solutions were prepared by dissolving the carbohydrates in buffer containing the receptor at the concentration to be used in the titration (thus avoiding dilution of the receptor during the experiment). The solutions were kept overnight at room temperature before the titration experiments, in order to ensure equilibration of anomers. The wavelength to be used for fluorescence excitation was determined by measurement of the UV-visible spectrum of receptor 3 in the presence of carbohydrates. 394 nm was chosen, because at this wavelength the absorption of receptor was almost independent of carbohydrate concentration. In a typical titration, aliquots of carbohydrate-receptor solution were added to receptor solution (2.5 mL) in a quartz cuvette (3 mL, 10 mm pathway). The solution was stirred for 2 minutes and left to stand for another 1 minute before the emission spectrum was recorded. Binding constants were calculated using non-linear curve fitting assuming 1:1 binding stoichiometry, employing both Kaleidagraph™ and a customised Excel™ spreadsheet. Errors were estimated at <5%.

The nature of series [1]: 1H NMR titration, binding to carbohydrate substrate. Conditions: 1H NMR titration in D2O at 298 K. Here is the method: (§2) The binding of receptor compound 3 to carbohydrate substrates, in aqueous solution, was studied initially by ^1H NMR titrations at 298 K. The saccharides used as test substrates are shown in FIG. 7.
(§3) Titrations were performed on a Varian™ 500 MHz spectrometer. Solutions of reducing carbohydrates were prepared in D2O and kept overnight at room temperature before the titration experiments, in order to ensure equilibration of anomers. In a typical titration, aliquots of carbohydrate solution were added to receptor solution (DSS as internal standard) and the ^1H NMR spectra were recorded. Variations in chemical shifts were entered into a specifically written non-linear least squares curve-fitting program implemented within Excel™. Assuming 1:1 stoichiometry, the program calculates Ka and the limiting change in chemical shift Δδ. The assumption is supported by the generally good fits between observed and calculated data.

Assay in series [2]: as above
Conditions: 1H NMR titration in D2O at 298 K; ~0 = too small for analysis. Here is the method:
as §2, §3

The nature of series [3]: Fluorescence emission properties of the receptor. It is filed as physicochemical. Here is the method:
as §1, with “The solution was stirred for 2 minutes and left to stand for another 1 minute before the emission spectrum was recorded. Binding constants were calculated using non-linear curve fitting assuming 1:1 binding stoichiometry, employing both Kaleidagraph™ and a customised Excel™ spreadsheet. Errors were estimated at <5%.” left out
It can be seen that on excitation with UV light at 394 nm, 3 emitted in the blue-violet region, peaking at 423 nm, with a quantum yield of 2.4% (20 μm aqueous solution). […] Binding constants obtained by this method were in good agreement with those measured by NMR titrations (see Table 1). Moreover these fluorescence characteristics are promising for practical glucose sensing, especially when compared to biphenyl-based synthetic lectins. […]

Series [4] can be described thus: 1H NMR titration, binding to carbohydrate substrate. Conditions: 1H NMR titration in D2O at 298 K. Here is the method:
as §2, §3
This is another data set of the same source.

Series [5] can be described thus: 1H NMR titration, summary for non-target monosaccharides. It is filed as binding. Conditions: all non-target monosaccharides aside from methyl α-D-glucoside. Here is the method:
as §2, §3

A short description of series [6]: 1H NMR titration, binding to carbohydrate substrate. Conditions: 1H NMR titration in D2O at 298 K. Here is the method: as §2, §3
The source holds these as a separate data set.

Assay in series [7]: as above
Conditions: 1H NMR titration in D2O at 298 K. Here is the method:
as §2, §3
This is another data set of the same source.

Series [8] is described as follows: Isothermal titration calorimetry (ITC). The class given is binding. Conditions: ITC titration in water at 298 K. Here is the method:
(§4) Experiments were performed on a VP-ITC™ (Microcal, Inc., Northampton, Mass.) at 298 K. Stock solutions of carbohydrates were made up in pure HPLC grade water and allowed to equilibrate overnight. Receptor solutions were made up in pure water. All the solutions were degassed and thermostated using the ThermoVac™ accessory before titration. The sample cell volume was 1.4226 mL. Each titration experiment included 25-35 successive injections.
Background: ITC needs no label: the signal is the heat of the interaction.

The nature of series [9]: 1H NMR titration, binding to carbohydrate substrate. Conditions: 1H NMR titration in D2O at 298 K. Here is the method: as §2, §3
This is another data set of the same source.

Assay in series [10]: as above
Conditions: 1H NMR titration in D2O at 298 K. Here is the method: as §2, §3
This is another data set of the same source.

Assay in series [11]: as above
Conditions: 1H NMR titration in D2O at 298 K; ~0 = too small for analysis. Here is the method: as §2, §3
This is another data set of the same source.

Assay in series [12]: as above
Conditions: for Ka: 1H NMR titration in D2O at 298 K. Here is the method:
as §2, §3

Assay in series [13]: as above
Conditions: 1H NMR titration in D2O at 298 K; ~0 = too small for analysis. Here is the method: as §2, §3
The source holds these as a separate data set.

The nature of series [14]: Solubility and aggregation in water/D2O (NMR dilution studies). It is filed as physicochemical. Here is the method: The compound was dissolved in D2O at concentrations up to ˜4 mM giving clean, if slightly broadened, ^1H NMR spectra. Minor signal movements were observed on dilution to ˜1 mM but no further effect was observed below this concentration, implying that the system is monomeric at 1 mM or less.

Series [15] can be described thus: 1H NMR titration, binding to carbohydrate substrate. Conditions: 1H NMR titration in D2O at 298 K. Here is the method:
as §2, §3
This is another data set of the same source.

A short description of series [16]: Photobleaching under continuous UV irradiation in a fluorescence spectrometer. It is filed as physicochemical. Conditions: in 5 hours. Here is the method: Under continuous UV irradiation in a fluorescence spectrometer, emission decayed by <10% in 5 hours. In a practical glucose monitoring device this would translate to a long lifetime as the receptor compound would be subjected only to short pulses of light every few seconds.

A short description of series [17]: 1H NMR titration, binding to carbohydrate substrate. Conditions: 1H NMR titration in D2O at 298 K. Here is the method:
as §2, §3
This is another data set of the same source.

Assay in series [18]: as above
Conditions: 1H NMR titration in D2O at 298 K; ~0 = too small for analysis. Here is the method:
as §2, §3
This is another data set of the same source.

Assay in series [19]: as above
Conditions: 1H NMR titration in D2O at 298 K; ~0 = too small for analysis. Here is the method: as §2, §3
The source holds these as a separate data set.

Assay in series [20]: as above
Conditions: 1H NMR titration in D2O at 298 K. Here is the method:
as §2, §3
The source holds these as a separate data set.

Assay in series [21]: as above
Conditions: 1H NMR titration in D2O at 298 K. Here is the method:
as §2, §3
The source holds these as a separate data set.

Series [22] is described as follows: Isothermal titration calorimetry (ITC). The class given is binding. Here is the method:
as §4

Series [23] can be described thus: 1H NMR titration, binding to carbohydrate substrate. Here is the method: as §2, §3
Assay in series [24]: as above
Conditions: 1H NMR titration in D2O at 298 K; ~0 = too small for analysis. Here is the method: as §2, §3
This is another data set of the same source.

Assay in series [25]: as above
Conditions: 1H NMR titration in D2O at 298 K. Here is the method:
as §2, §3
The source holds these as a separate data set.

Assay in series [26]: as above
Conditions: 1H NMR titration in D2O at 298 K. Here is the method:
as §2, §3
The source holds these as a separate data set.

Assay in series [27]: as above
Conditions: 1H NMR titration in D2O at 298 K; ~0 = too small for analysis. Here is the method: as §2, §3
This is another data set of the same source.

Assay in series [28]: as above
Conditions: 1H NMR titration in D2O at 298 K. Here is the method:
as §2, §3
The source holds these as a separate data set.

Where [29] appears, read: 1H NMR titration, 1.1 mM receptor, glucose 0 to 200 mM, 298 K.
Setting [30] is: 0.125 mM to 2 mM in D2O at 298 K.

With `O=C(O)CCOCC(COCCC(=O)O)(COCCC(=O)O)NC(=O)c1cc2cc(c1)C(=O)NCc1c3ccccc3c(c3ccccc13)CNC(=O)c1cc(cc(C(=O)NC(COCCC(=O)O)(COCCC(=O)O)COCCC(=O)O)c1)C(=O)NCc1c3ccccc3c(c3ccccc13)CNC2=O` [Compound 3], the Ka in “Fluorescence titration” (binding data at 423 nm) is 58 M⁻¹; in “Fluorescence titration” (with D -lactose) it was 9 M⁻¹; in the series “Fluorescence titration” (with methyl β-D-glucoside 10), 121 M⁻¹; in [1] it was 36 M⁻¹; in series [2] it was around 0 M⁻¹; in series [4], 28 M⁻¹. Besides, the Ka in series [5] was at most 1 m^−1; in series [6], 87 M⁻¹; in series [7] it was 24 M⁻¹; in series [8] it was 101 M⁻¹; in series [9], 10 M⁻¹; in [10], 9 M⁻¹. For the same compound, the Ka in series [11] was around 0 M⁻¹; in series [12] it was 56 M⁻¹; in series [12] (~0 = too small for analysis), around 0 M⁻¹; in [13] it was around 0 M⁻¹; in series [15] it was 96 M⁻¹; in [17], 1 M⁻¹. Also, the Ka in series [18] was around 0 M⁻¹; in series [19], around 0 M⁻¹; in series [20], 1 M⁻¹; in [21], 6 M⁻¹; in series [22] (ITC titration in water at 298 K), 55 M⁻¹; in [23] (1H NMR titration in D2O at 298 K, ~0 = too small for analysis), around 0 M⁻¹. Besides, the Ka in series [24] was around 0 M⁻¹; in series [25], 1 M⁻¹; in series [26], 16 M⁻¹; in [27], around 0 M⁻¹; in [28] it was 35 M⁻¹. Further, the “increase of emission intensity on addition of glucose (factor)” value in the series “Fluorescence titration” (receptor 18.8 μM, excitation 394 nm) was “up to 2.5”. For the same compound, the quantum yield in series [3] (20 μm aqueous solution, excitation 394 nm) stood at 2.4%. The compound further yielded an emission peak in [3] (excitation with UV light at 394 nm) of 423 nm. Moreover, the “association constant Ka from movement of proton E” value in series [12] (setting [29]) was found to be 58 M⁻¹. In addition, the “association constant Ka from movement of proton F” value in series [12] (setting [29]) turned out to be 54 M⁻¹. The receptor occupancy in series [12] (310 K, across the physiological range of 2-10 mM glucose) is recorded as 6-25%. Further, the “response when added to receptor” value in series [12] (lactate) and in [23] (mannitol) was “Neither produced any response” throughout. For the same compound, the “affinity measured by NMR titration” value in series [12] (physiological temperature (310 K)) worked out at 33 M⁻¹. Also, the “concentration at which system is monomeric” value in [14] (D2O, NMR dilution) is at most 1000 µM. Also, in [14] (giving clean 1H NMR spectra), the “concentration dissolved in D2O” value is around 4000 µM. The “emission decay (photobleaching)” value in series [16] is reported as below 10%. Moreover, the TΔS of binding in [22] (ITC, 298 K, water) is -1.4 kcal/mol. Further, the ΔH of binding in series [22] (ITC, 298 K, water) was -3.8 kcal/mol.
In the case of `O=C([O-])CCOCC(COCCC(=O)[O-])(COCCC(=O)[O-])NC(=O)c1cc2cc(c1)C(=O)NCc1c3ccccc3c(c3ccccc13)CNC(=O)c1cc(cc(C(=O)NC(COCCC(=O)[O-])(COCCC(=O)[O-])COCCC(=O)[O-])c1)C(=O)NCc1ccc(cc1)CNC2=O.[Na+].[Na+].[Na+].[Na+].[Na+].[Na+]` [Compound 9], the Ka entry in series [10] and in series [12] was “too small to measure” each time.
Take `O=C([O-])CCC(CCC(=O)[O-])(CCC(=O)[O-])NC(=O)CCC(CCC(=O)NC(CCC(=O)[O-])(CCC(=O)[O-])CCC(=O)[O-])(CCC(=O)NC(CCC(=O)[O-])(CCC(=O)[O-])CCC(=O)[O-])NC(=O)c1cc2cc(c1)C(=O)NCc1c3ccccc3c(c3ccccc13)CNC(=O)c1cc(cc(C(=O)NC(CCC(=O)NC(CCC(=O)[O-])(CCC(=O)[O-])CCC(=O)[O-])(CCC(=O)NC(CCC(=O)[O-])(CCC(=O)[O-])CCC(=O)[O-])CCC(=O)NC(CCC(=O)[O-])(CCC(=O)[O-])CCC(=O)[O-])c1)C(=O)NCc1c3ccccc3c(c3ccccc13)CNC2=O.[Na+].[Na+].[Na+].[Na+].[Na+].[Na+].[Na+].[Na+].[Na+].[Na+].[Na+].[Na+].[Na+].[Na+].[Na+].[Na+].[Na+].[Na+]` [Compound 13]: in the series “Fluorescence titration” (em 423 nm, ex 395 nm, 18.8 μM, phosphate buffer pH 7.1), the “increase in fluorescence emission upon binding with D-glucose” value was “approximately three-fold”. Moreover, the Ka in “Fluorescence titration” (binding data at 423 nm) turned out to be 87 M⁻¹. The compound also showed a Ka in series [12] of 89 M⁻¹. In addition, in series [14] (setting [30]), the “aggregation during NMR dilution studies” value was “no indication of aggregation” and the solubility in water entry is on record as “good solubility in water”.
